# Test results from patent US20240270786A1, “STEROID COMPOUNDS” (Epirium Bio Inc., priority 2022, published 2024).
# Where “and” joins values, the source holds several entries; their conditions need not be identical. Equal entries are not always repeated.
# Legend:
# PGC-1α = test: In vivo PGC-1α expression in liver of LPS-treated mice (ELISA); parameters: species or system C57BL/6 mice; conditions: LPS 3 mg/Kg IP, test compound 10 mg/kg PO BID, liver, 24 hours post LPS; for PGC-1α levels: C57BL/6 mice; for PGC-1α level (%): Control = 100
# Description: C57BL/6 mice were procured from Vivo Bio Tech Ltd. Male mice were used for the study within an age range of 7 to 8 weeks. Body weight for these mice ranged from 20 g to 25 g. Animals were housed in a group of 6 in individually ventilated cages with temperature of 22±3° C., a relative humidity of 50 to 60%. The bottom of the cages was layered with sterilized corn cob. Animals were provided with gamma irradiated feed and autoclaved drinking water ad-libitum. The IVCs were maintained at an environment controlled (Centrally Air-Conditioned) room at a temperature of 22±3° C., a relative humidity of 50 to 60%, light intensity of 250-300 lux and a 12 hour light-dark cycle and noise intensity of <85 db.
# Method of Preparation: LPS was dosed at 3 mg/kg in a dose volume of 10 ml/kg. For this, 0.3 mg/ml of LPS solution (Micronized suspension) was prepared. Butter paper was placed on analytical balance, tarred and LPS was placed on butter paper and its weight was noted down. LPS was transferred to 15 ml falcon tube. Then required amount of normal saline was added to it to make it 0.3 mg/ml. The solution was vortexed properly for 5 minutes and placed on ice. LPS solution was vortexed every time before aspiration and injection.
# LPS was dosed at 3 mg/kg. Each test compound was dosed at 10 mg/kg, 2 hour and 15 min post LPS administration.
# 0.5% CMC was used as a vehicle with a dose volume of 10 ml/kg. An IP route was used for LPS, and a PO route was used for each test compound. Animals were sacrified 24 hours post LPS dosing, and plasma were collected. PGC-1α level was measured in liver samples, and other tissues were stored for future analysis. PGC-1α level was checked using ELISA kit—CUSABIO Mouse PPARGC1A ELISA kit.
# Protocol: One day before start of the experiment C57BL/6 Mice (Male, 6-7-week-old) were randomized on the basis of their body weight and were divided into groups. All the cages were assigned the respective group name. Animals inside each cage were marked on the base of the tails with permanent marker to distinguish each animal. Mice were fasted overnight. Next day morning animals were dosed with test item. Group 1 (Control) and Group 2 (LPS) Animals were dosed with vehicle (0.5% CMC). Test items were prepared in 0.5% CMC by trituration in mortar and pestle and addition of CMC drop by drop. 2 hour post test item/vehicle dosing animals were administered with LPS through IP route at 3 mg/kg of body weight. Group 1 (Control) animals were administered with saline. 0.25 hour post LPS administration, animals were again dosed with test item/vehicle. Post dosing, animals were returned to their respective cages and kept until termination of the study. No feed was offered to any group. Animals were provided with water. 24 hour post LPS administration, blood was collected from each animal under influence of mild isoflurane anesthesia through retro-orbital technique. Animals were sacrificed by CO2 asphyxiation technique. Post-termination, animals were dissected and vital organs, liver, brain, skeleton muscle were collected in Eppendorf tubes and flash frozen in liquid nitrogen. Serum was collected from whole blood by centrifuging it at 4° C. at 10,000 RPM and for 10 minutes. (Blood was left for 2 hour for coagulation before centrifugation) After completion of the experiment, all collected samples were stored at −80° C. until analysis.
# Assay Methods/Protocol: The mortar was chilled with liquid nitrogen and then the small tissue pieces were grinded in the presence of liquid nitrogen to a fine powder. Immediately after grinding, transferred small amount of tissue powder to a 1.5 ml micro centrifuge tube containing 1.0 ml lysis buffer (RIPA buffer+Protease inhibitor). The samples were then incubated on ice for 2 hours. The samples were vortexed every 15 minutes. The samples were then centrifuged at 13000×g for 15 minutes at 2-8° C. After centrifugation the supernatant was removed carefully and pellet was discarded. […]
# [1] = tested on: PGC-1α expression in C2C12 cells; test: In vitro PGC-1α expression in C2C12 cells (cell ELISA); format: cell-based; conditions: 0.01 nM, 5000 cells/well, OD @ 650 nm, DMSO control = 100
# Description: Culture conditions: DMEM containing 25 mM glucose with 10% FBS supplementation; grown at 37° C. and 5% CO2.
# Drugs: (+)-Epicatechin, AICAR (direct activator of AMPK).
# Assay Conditions: C2C12 cells were cultured in DMEM supplemented in 10% FBS upto 80% confluence. The cells were further trypsinized and seeded into a 96 well plate at a density of 5000 cells/well (well volume—100 μL) (Day 0). Following attachment, the cells were allowed to reach 80-90% confluence in the plate (typically 48 hours post seeding) and further differentiated using DMEM+2% Horse Serum (200 μL/well). The media was changed every day or at least every alternate day for 5 days to allow myoblasts to differentiate into myotubes. On day 7 (post seeding), the cells were treated with standards and test compounds for PGC-1 α assay.
# PGC-1α assay: For the detection of PGC-1a, the cells were incubated with 0.5 μg/ml primary antibody (Merck, WH0010891M3) in PBS-T containing 5% BSA at 4° C. overnight. The cells were then washed three times with PBS-T for 5 minutes and incubated with 1:1000 dilution secondary antibody (Anti-rabbit IgG, HRP-linked Antibody, Cell Signaling) in PBS-T with 1% BSA for 1 hour at RT. Cells were washed three times with PBS-T for 5 minutes The cells were incubated with 100 μl TMB substrate solution for 30 minutes and the reaction was stopped with 100 μl of 2N H2SO4. […] (For plate optical density calculations, a background correction was taken at 540 nm). The final PGC-1a activation % is average of activation of 6 replicates.
Structure (SMILES),PGC-1α levels (PGC-1α),PGC-1α level (%) (PGC-1α),% Activity (PGC-1α expression) [1]
"CNC(=O)[C@H]1CCC2C3CC=C4N(C)C(=O)CC[C@]4(C)C3[C@@H](O)C[C@@]21C (stereo partly drawn) [Compound 40, (4aR,5S,6aS)-5-hydroxy-N,1,4a,6a-tetramethyl-2-oxo-2,3,4,4a,4b,5,6,6a,7,8,9,9a,9b,10-tetradecahydro-1H-indeno[5,4-f] quinoline-7-carboxamide]",39014 pg/mL and 22668 pg/mL,73% and 75%,130% and 143%
"CC(C)CCNC(=O)C1CCC2C3CC=C4N(C)C(=O)CC[C@]4(C)C3[C@@H](O)C[C@]12C (stereo partly drawn) [Compound 36, (4aR,5S,6aS)-5-hydroxy-N-isopentyl-1,4a,6a-trimethyl-2-oxo-2,3,4,4a,4b,5,6,6a,7,8,9,9a,9b,10-tetradecahydro-1H-indeno[5,4-f]quinoline-7-carboxamide]",29341 pg/mL,77%,133% and 130%
"CN1C(=O)CC[C@@]2(C)C1=CCC1C2[C@@H](O)C[C@@]2(C)C1CC[C@@H]2NC(=O)C1CC1 (stereo partly drawn) [Compound 26, N-((4aR,5S,6aS,7S)-5-hydroxy-1,4a,6a-trimethyl-2-oxo-2,3,4,4a,4b,5,6,6a,7,8,9,9a,9b,10-tetradecahydro-1H-indeno[5,4-f]quinolin-7-yl)cyclopropanecarboxamide]",32298 pg/mL,84%,129% and 146%
